Test results taken from patent US20260226029A1, “1-(1-Oxo-1,2-Dihydrophthalazin-6-yl)Cycloalkyl-1-Carboxamide Derivatives as MTA-Cooperative Inhibitors of PRMT5” (BeOne Medicines I GmbH, priority 2023, published 2026).

How the values were obtained:
HCT116-MTAP-KO = assay: Compounds cell killing in HCT116 isogenic pair (CellTiter-Glo, 6 days), MTAP-KO cells; format: cell-based; details: Homo sapiens, HCT-116, 144 h, Cell Titer-Glo, 0-10 μM
Text: (§1) HCT116 cell line (ATCC, CCL-247) was isolated from the colon of an adult with colon cancer. It has a mutation in codon 13 of the ras proto-oncogene and can be used as a positive control for PCR assays of mutation in this codon. HCT116-MTAP-KO was knocked-out-MTAP-gene based HCT116, and a single clone was passed for this assay. HCT116-mock-RNA-KO was knocked-out-mock-gene based HCT116 with MTAP wildtype genotype. The base medium for HCT116 isogenic pair is RPMI 1640, HEPES (Gibco, 22400105). To make the complete growth medium, add the following components to the base medium: fetal bovine serum to a final concentration of 10% (Gibco, 10099-141C). The cell line was grown in a humidified 5% CO2 atmosphere at 37° C. and regularly tested for the presence of mycoplasma with MycoAlert™ PLUS Mycoplasma Detection Kit (Lonza, LT07-710).
(§2) • Seed HCT116-mock-RNA-KO (4E2/well) or HCT116-MTAP-KO (4E2/well) cells into a 96-well plate (Greiner: 655090), 100 µL/well. • Incubate at 37° C., 5% CO2, overnight. • Add 50 μL fresh growth-medium containing serial dilution of compounds for a final compound concentration of 0-10 μM to each well. • Incubate at 37° C., 5% CO2, 6 days. • The cell viability detected by Cell Titer-Glo (Promega, G7573). Add 70 μL of CellTiter-Glo® reagent in each well. • Incubate at room temperature for 10 minutes to stabilize luminescent signal. • Analyze with Microplate Reader (TECAN, SPARK) and fit IC50 using Prism® 9.

HCT116-mock-RNA-KO = assay: Compounds cell killing in HCT116 isogenic pair (CellTiter-Glo, 6 days), mock-KO (MTAP wildtype) cells; format: cell-based; details: Homo sapiens, HCT-116, 144 h, Cell Titer-Glo, 0-10 μM
Text: as §1, §2

Row | SMILES | IC50 (HCT116-MTAP-KO) | IC50 (HCT116-mock-RNA-KO)
1 | Cn1nccc1-c1ccc(CN(C(=O)C2(c3ccc4c(=O)[nH]nc(CN)c4c3)CC2)C2CCCc3cccnc32)nc1 (stereo not drawn) [Example 16, 1-(4-(aminomethyl)-1-oxo-1,2-dihydrophthalazin-6-yl)-N-((5-(1-methyl-1H-pyrazol-5-yl)pyridin-2-yl)methyl)-N-(5,6,7,8-tetrahydroquinolin-8-yl)cyclopropane-1-carboxamide] | 699 nM | > 10000 nM
2 | Cc1n[nH]c(C)c1-c1ccc(CN(C(=O)C2(c3ccc4c(=O)[nH]nc(CN)c4c3)CC2)C2CCCc3cccnc32)nc1 (stereo not drawn) [Example 23, 1-(4-(aminomethyl)-1-oxo-1,2-dihydrophthalazin-6-yl)-N-((5-(3,5-dimethyl-1H-pyrazol-4-yl)pyridin-2-yl)methyl)-N-(5,6,7,8-tetrahydroquinolin-8-yl)cyclopropane-1-carboxamide] | 3990 nM | > 10000 nM
3 | NCc1n[nH]c(=O)c2ccc(C3(C(=O)N(Cc4ccc(Oc5ccccc5)cn4)C4CCCc5cccnc54)CC3)cc12 (stereo not drawn) [Example 20, 1-(4-(aminomethyl)-1-oxo-1,2-dihydrophthalazin-6-yl)-N-((5-phenoxypyridin-2-yl)methyl)-N-(5,6,7,8-tetrahydroquinolin-8-yl)cyclopropane-1-carboxamide] | 215 nM | > 1000 nM
4 | NCc1n[nH]c(=O)c2ccc(C3(C(=O)N(Cc4ccc(C(F)(F)F)cn4)Cc4c(F)cccc4Cl)CC3)cc12 [Example 9, 1-(4-(aminomethyl)-1-oxo-1,2-dihydrophthalazin-6-yl)-N-(2-chloro-6-fluorobenzyl)-N-((5-(trifluoromethyl)pyridin-2-yl)methyl)cyclopropane-1-carboxamide] | 222 nM | 4670 nM
5 | NCc1n[nH]c(=O)c2ccc(C3(C(=O)N(Cc4ccc(C(F)(F)F)cn4)C4CCCc5cccnc54)CCC3)cc12 (stereo not drawn) [Example 35, 1-(4-(aminomethyl)-1-oxo-1,2-dihydrophthalazin-6-yl)-N-(5,6,7,8-tetrahydroquinolin-8-yl)-N-((5-(trifluoromethyl)pyridin-2-yl)methyl)cyclobutane-1-carboxamide] | 924 nM | > 10000 nM
6 | CC1(C)COc2nc(CN(C(=O)C3(c4ccc5c(=O)[nH]nc(CN)c5c4)CC3)C3CCCc4cccnc43)ccc21 (stereo not drawn) [Example 5, 1-(4-(aminomethyl)-1-oxo-1,2-dihydrophthalazin-6-yl)-N-((3,3-dimethyl-2,3-dihydrofuro[2,3-b]pyridin-6-yl)methyl)-N-(5,6,7,8-tetrahydroquinolin-8-yl)cyclopropane-1-carboxamide] | 707 nM | > 10000 nM
7 | NCc1n[nH]c(=O)c2ccc(C3(C(=O)N(Cc4ccc(-c5c(F)cccc5F)cn4)C4CCCc5cccnc54)CC3)cc12 (stereo not drawn) [Example 18, 1-(4-(aminomethyl)-1-oxo-1,2-dihydrophthalazin-6-yl)-N-((5-(2,6-difluorophenyl)pyridin-2-yl)methyl)-N-(5,6,7,8-tetrahydroquinolin-8-yl)cyclopropane-1-carboxamide] | 35 nM | 2220 nM
8 | Cc1nc(CN(C(=O)C2(c3ccc4c(=O)[nH]nc(CN)c4c3)CC2)C2CCCc3cccnc32)sc1I (stereo not drawn) [Example 12, 1-(4-(aminomethyl)-1-oxo-1,2-dihydrophthalazin-6-yl)-N-((5-iodo-4-methylthiazol-2-yl)methyl)-N-(5,6,7,8-tetrahydroquinolin-8-yl)cyclopropane-1-carboxamide] | 482 nM | 6010 nM
9 | NCc1n[nH]c(=O)c2ccc(C3(C(=O)N(Cc4ccc(Oc5c(F)cccc5F)cn4)[C@@H]4CCCc5cccnc54)CC3)cc12 [Example 34, (R)-1-(4-(aminomethyl)-1-oxo-1,2-dihydrophthalazin-6-yl)-N-((5-(2,6-difluorophenoxy)pyridin-2-yl)methyl)-N-(5,6,7,8-tetrahydroquinolin-8-yl)cyclopropane-1-carboxamide] | 66 nM | 3650 nM
10 | C[C@H]1CCC[C@@H](c2ccc(C(F)(F)F)cn2)N1C(=O)C1(c2ccc3c(=O)[nH]nc(CN)c3c2)CC1 (racemic) [Example 24, (±)-4-(aminomethyl)-6-(1-((2S,6S)-2-methyl-6-(5-(trifluoromethyl)pyridin-2-yl)piperidine-1-carbonyl)cyclopropyl)phthalazin-1(2H)-one] | 5260 nM | > 10000 nM
11 | NCc1n[nH]c(=O)c2ccc(C3(C(=O)N(Cc4ccc(-c5c(Cl)cccc5Cl)cn4)[C@H]4CCCc5cccnc54)CC3)cc12 [Example 4B, (S)-1-(4-(aminomethyl)-1-oxo-1,2-dihydrophthalazin-6-yl)-N-((5-(2,6-dichlorophenyl)pyridin-2-yl)methyl)-N-(5,6,7,8-tetrahydroquinolin-8-yl)cyclopropane-1-carboxamide] | 1540 nM | 5910 nM
12 | NCc1n[nH]c(=O)c2ccc(C3(C(=O)N(Cc4ccc(C(F)(F)F)cn4)[C@H]4CCCc5cccnc54)CC3)cc12 [Example 2B, (S)-1-(4-(aminomethyl)-1-oxo-1,2-dihydrophthalazin-6-yl)-N-(5,6,7,8-tetrahydroquinolin-8-yl)-N-((5-(trifluoromethyl)pyridin-2-yl)methyl)cyclopropane-1-carboxamide] | > 10000 nM | > 10000 nM
13 | NCc1n[nH]c(=O)c2ccc(C3(C(=O)N(Cc4ccc(-c5c(F)cccc5F)cn4)[C@H]4CCCc5cccnc54)CC3)cc12 [Example 19B, (S)-1-(4-(aminomethyl)-1-oxo-1,2-dihydrophthalazin-6-yl)-N-((5-(2,6-difluorophenyl)pyridin-2-yl)methyl)-N-(5,6,7,8-tetrahydroquinolin-8-yl)cyclopropane-1-carboxamide] | 848 nM | > 10000 nM
14 | NCc1n[nH]c(=O)c2ccc(C3(C(=O)N(Cc4ccc(-c5c(F)cccc5Cl)cn4)C4CCCc5cccnc54)CC3)cc12 (stereo not drawn) [Example 26, 1-(4-(aminomethyl)-1-oxo-1,2-dihydrophthalazin-6-yl)-N-((5-(2-chloro-6-fluorophenyl)pyridin-2-yl)methyl)-N-(5,6,7,8-tetrahydroquinolin-8-yl)cyclopropane-1-carboxamide] | 77 nM | 2780 nM
15 | NCc1n[nH]c(=O)c2ccc(C3(C(=O)N(Cc4ccc(-c5c(F)cccc5F)cn4)C4CCCc5cccc(F)c54)CC3)cc12 (stereo not drawn) [Example 21, 1-(4-(aminomethyl)-1-oxo-1,2-dihydrophthalazin-6-yl)-N-((5-(2,6-difluorophenyl)pyridin-2-yl)methyl)-N-(8-fluoro-1,2,3,4-tetrahydronaphthalen-1-yl)cyclopropane-1-carboxamide] | 102 nM | 4010 nM
16 | NCc1n[nH]c(=O)c2ccc(C3(C(=O)N(Cc4ccc(Br)cc4F)C4CCCc5cccnc54)CC3)cc12 (stereo not drawn) [Example 22, 1-(4-(aminomethyl)-1-oxo-1,2-dihydrophthalazin-6-yl)-N-(4-bromo-2-fluorobenzyl)-N-(5,6,7,8-tetrahydroquinolin-8-yl)cyclopropane-1-carboxamide] | 130 nM | 7370 nM
17 | NCc1n[nH]c(=O)c2ccc(C3(C(=O)N(Cc4ccc(-c5c(Cl)cccc5Cl)cn4)C4CCCc5cccnc54)CC3)cc12 (stereo not drawn) [Example 3, 1-(4-(aminomethyl)-1-oxo-1,2-dihydrophthalazin-6-yl)-N-((5-(2,6-dichlorophenyl)pyridin-2-yl)methyl)-N-(5,6,7,8-tetrahydroquinolin-8-yl)cyclopropane-1-carboxamide] | 57 nM | 3870 nM
18 | NCc1n[nH]c(=O)c2ccc(C3(C(=O)N(Cc4ccc(-c5ccccc5)cn4)[C@@H]4CCCc5cccnc54)CC3)cc12 [Example 11A, (R)-1-(4-(aminomethyl)-1-oxo-1,2-dihydrophthalazin-6-yl)-N-((5-phenylpyridin-2-yl)methyl)-N-(5,6,7,8-tetrahydroquinolin-8-yl)cyclopropane-1-carboxamide] | 57 nM | 2790 nM
19 | NCc1n[nH]c(=O)c2ccc(C3(C(=O)N(Cc4ccc(-c5c(Cl)cccc5Cl)cn4)[C@@H]4CCCc5cccnc54)CC3)cc12 [Example 4A, (R)-1-(4-(aminomethyl)-1-oxo-1,2-dihydrophthalazin-6-yl)-N-((5-(2,6-dichlorophenyl)pyridin-2-yl)methyl)-N-(5,6,7,8-tetrahydroquinolin-8-yl)cyclopropane-1-carboxamide] | 85 nM | 2950 nM
20 | COc1ccnc2c1CCCC2N(Cc1ccc(C(F)(F)F)cn1)C(=O)C1(c2ccc3c(=O)[nH]nc(CN)c3c2)CC1 (stereo not drawn) [Example 17, 1-(4-(aminomethyl)-1-oxo-1,2-dihydrophthalazin-6-yl)-N-(4-methoxy-5,6,7,8-tetrahydroquinolin-8-yl)-N-((5-(trifluoromethyl)pyridin-2-yl)methyl)cyclopropane-1-carboxamide] | 253 nM | > 10000 nM
21 | NCc1n[nH]c(=O)c2ccc(C3(C(=O)N(Cc4ccc5c(Br)cccc5n4)C4CCCc5cccnc54)CC3)cc12 (stereo not drawn) [Example 27, 1-(4-(aminomethyl)-1-oxo-1,2-dihydrophthalazin-6-yl)-N-((5-bromoquinolin-2-yl)methyl)-N-(5,6,7,8-tetrahydroquinolin-8-yl)cyclopropane-1-carboxamide] | 415 nM | 7290 nM
